{"source": "patent US20260076970A1", "about": "“CANCER TREATMENT USING MTDP INHIBITORS AND PLK1 INHIBITORS” (Cardiff Oncology, Inc., priority 2022, published 2026)", "key": {"[1]": {"biological_target": "panel of 63 kinases other than PLK1", "assay": "kinase panel selectivity (63 kinases)", "format": "biochemical"}, "PLK1": {"biological_target": "PLK1 (Homo sapiens, UniProt P53350)", "sequence (P53350 whole entry)": "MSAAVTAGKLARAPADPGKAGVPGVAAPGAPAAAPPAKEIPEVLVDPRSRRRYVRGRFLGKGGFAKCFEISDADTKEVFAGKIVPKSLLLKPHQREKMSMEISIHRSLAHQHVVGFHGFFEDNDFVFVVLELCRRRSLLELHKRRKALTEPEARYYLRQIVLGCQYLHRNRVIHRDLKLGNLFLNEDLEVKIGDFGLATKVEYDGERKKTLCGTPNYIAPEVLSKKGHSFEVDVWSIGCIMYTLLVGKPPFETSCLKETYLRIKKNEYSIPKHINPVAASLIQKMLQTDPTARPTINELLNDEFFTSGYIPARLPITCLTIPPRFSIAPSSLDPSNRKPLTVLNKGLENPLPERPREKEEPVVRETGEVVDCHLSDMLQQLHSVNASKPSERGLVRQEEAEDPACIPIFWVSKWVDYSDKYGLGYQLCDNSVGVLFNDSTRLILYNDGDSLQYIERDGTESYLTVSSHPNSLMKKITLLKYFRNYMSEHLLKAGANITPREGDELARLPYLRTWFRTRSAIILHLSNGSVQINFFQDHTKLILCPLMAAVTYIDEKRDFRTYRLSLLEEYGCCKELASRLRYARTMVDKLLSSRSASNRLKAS", "assay": "biochemical assays, panel of 296 kinases", "details": "including other PLK members"}, "CYP1A2": {"biological_target": "T1, CYP1A2 (Homo sapiens, UniProt P05177)", "T1 construct": "was investigated using human liver microsomes; from tissue; host or cells: human liver microsomes", "T1 sequence (P05177 1-516)": "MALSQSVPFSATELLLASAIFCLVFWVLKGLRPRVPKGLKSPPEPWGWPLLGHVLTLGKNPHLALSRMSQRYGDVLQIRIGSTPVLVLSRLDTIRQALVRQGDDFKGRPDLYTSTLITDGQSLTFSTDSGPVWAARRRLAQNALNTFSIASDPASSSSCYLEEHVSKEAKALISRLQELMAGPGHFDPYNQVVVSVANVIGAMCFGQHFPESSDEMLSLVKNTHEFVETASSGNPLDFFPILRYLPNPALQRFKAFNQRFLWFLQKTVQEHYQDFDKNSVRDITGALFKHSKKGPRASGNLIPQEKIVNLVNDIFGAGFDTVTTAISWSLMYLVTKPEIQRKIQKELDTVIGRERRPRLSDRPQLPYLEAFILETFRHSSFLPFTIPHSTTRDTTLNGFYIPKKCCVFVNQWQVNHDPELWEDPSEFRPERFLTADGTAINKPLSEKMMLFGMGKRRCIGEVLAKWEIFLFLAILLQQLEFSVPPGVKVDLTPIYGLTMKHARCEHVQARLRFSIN", "assay": "CYP inhibition in human liver microsomes", "format": "in vitro ADME", "from_the_text": "(§1) In Table 1, IC50 is shown as mean±SEM (standard error of mean)."}, "[2]": {"system": "CYP2C8, CYP2C9, CYP2C19, CYP2D6, CYP3A4", "assay": "CYP inhibition in human liver microsomes, summary over isoforms", "format": "in vitro ADME", "details": "range over isoforms", "from_the_text": "as §1"}, "AML cell lines": {"system": "AML cell lines", "assay": "cell proliferation in AML cell lines", "format": "cell-based"}, "[3]": {"system": "HT29 human colon adenocarcinoma xenografts", "assay": "HT29 xenograft, combination with irinotecan", "format": "in vivo", "details": "in combination with irinotecan"}, "[4]": {"system": "disseminated model of AML", "assay": "disseminated model of AML, combination with cytarabine", "format": "in vivo", "details": "in combination therapy with cytarabine"}, "[5]": {"assay": "pharmacologic parameters of onvansertib", "format": "in vivo"}, "[6]": {"assay": "concentration for anti-tumoral activity in mice", "format": "in vivo", "from_the_text": "as §1"}, "patients with mCRPC": {"system": "patients with mCRPC", "assay": "onvansertib plus abiraterone in patients with mCRPC (NCT03414034)", "format": "in vivo, human"}, "SUM159 xenografts": {"system": "SUM159 xenografts", "assay": "SUM159 mouse xenograft", "format": "in vivo", "details": "at 21 days; onvansertib 120 mg/Kg P.O. day 1 and 2 weekly or paclitaxel 10 mg/Kg I.P. day 1 weekly"}, "clinical": {"assay": "clinical", "details": "human, in vivo, po"}, "[7]": {"system": "metastatic breast cancer patients", "details": "cited from earlier work"}, "patients with AML [8]": {"system": "patients with AML", "details": "intravenously in combination with LDAC; treatment-naïve AML; cited from earlier work"}, "patients with AML [9]": {"system": "patients with AML", "details": "in combination with LDAC; cited from earlier work"}, "[10]": {"system": "patients with metastatic TNBC", "details": "with chemotherapy vs chemotherapy and placebo; tumors strongly positive for PD-L1 (CPS>10); cited from earlier work"}}, "note": "Like-named read-outs stand apart in the source and are kept apart here."}
{"molecule": "CN1CCN(c2ccc(OC(F)(F)F)c(Nc3ncc4c(n3)-c3c(c(C(N)=O)nn3CCO)CC4)c2)CC1", "note": "[onvansertib, 1-(2-hydroxyethyl)-8-{[5-(4-methylpiperazin-1-yl)-2-(trifluoromethoxy)phenyl]amino}-4,5-dihydro-1H-pyrazolo[4,3-h]quinazoline-3-carboxamide]", "values": [{"measurement": "IC50", "setting": "[1]", "result": "> 0.5", "unit": "µM"}, {"measurement": "specificity for PLK1 among a panel of 296 kinases", "setting": "PLK1", "result": "high specificity"}, {"measurement": "inhibitory effects against CYP1A2", "setting": "CYP1A2", "result": "No significant inhibitory effects"}, {"measurement": "IC50", "setting": "[2]", "result": "20 to 66", "unit": "µM"}, {"measurement": "inhibition of cell proliferation", "setting": "AML cell lines", "result": "nanomolar concentrations"}, {"measurement": "tumor regression compared to each agent alone", "setting": "[3]", "result": "enhanced tumor regression"}, {"measurement": "survival of animals", "setting": "[4]", "result": "prolonged survival"}, {"measurement": "half-life", "setting": "[5]; in vivo", "result": 24, "unit": "h"}, {"measurement": "oral bioavailability", "setting": "[5]; rodent and nonrodent species", "result": "good oral bioavailability"}, {"measurement": "concentrations relevant to achieve significant anti-tumoral activity", "setting": "[6]", "result": "~1", "unit": "µM"}, {"measurement": "evaluable patients who met the primary efficacy endpoint", "setting": "patients with mCRPC; 12 mg/m^2, 14+7 regimen with abiraterone, 5 evaluable", "result": 60, "unit": "%"}, {"measurement": "hematological toxicities reported", "setting": "patients with mCRPC; 12 mg/m^2 QD 14+7 regimen with abiraterone QD, 9 patients", "result": "no Grade 2 or higher hematological toxicities"}, {"measurement": "evaluable patients who met the primary efficacy endpoint", "setting": "patients with mCRPC; 18 mg/m^2, 5+9 regimen, 10 evaluable", "result": 30, "unit": "%"}, {"measurement": "tumor growth inhibition, difference compared to controls", "setting": "SUM159 xenografts", "result": "−0.406"}, {"measurement": "half-life", "setting": "clinical", "result": "20 to 30", "unit": "h"}]}
{"molecule": "CC(=O)O[C@H]1C(=O)[C@@]2(C)[C@H]([C@H](OC(=O)c3ccccc3)[C@]3(O)C[C@H](OC(=O)[C@H](O)[C@@H](NC(=O)c4ccccc4)c4ccccc4)C(C)=C1C3(C)C)[C@]1(OC(C)=O)CO[C@@H]1C[C@@H]2O", "note": "[paclitaxel, 5β,20-Epoxy-1,2α,4,7β,10β,13α-hexahydroxytax-11-en-9-one 4,10-diacetate 2-benzoate 13-ester with (2R,3S)-N-benzoyl-3-phenylisoserine]", "values": [{"measurement": "tumor growth inhibition, difference compared to controls", "setting": "SUM159 xenografts", "result": "−0.337"}, {"measurement": "Grade 3 anemia", "setting": "[7]; 80 mg/m^2 weekly, 212 patients", "result": 9, "unit": "%"}, {"measurement": "Grade 3 or 4 neutropenia", "setting": "[7]; 80 mg/m^2 weekly, 212 patients", "result": 15, "unit": "%"}, {"measurement": "responses", "setting": "[7]; 45 assessable patients with prior taxane therapy", "result": 15.6, "unit": "%"}, {"measurement": "responses", "setting": "[7]; 131 assessable patients with prior anthracycline therapy", "result": 17.6, "unit": "%"}, {"measurement": "overall response rate", "setting": "[7]; 177 assessable patients", "result": 21.5, "unit": "%"}, {"measurement": "median time to progression", "setting": "[7]; assessable patients", "result": 142, "unit": "days"}, {"measurement": "grade 3 neuropathy", "setting": "[7]; in vivo", "result": 9, "unit": "%"}, {"measurement": "grade 4 neuropathy", "setting": "[7]; in vivo", "result": "no patient"}, {"measurement": "median number of courses of therapy until development of grade 2 or 3 neuropathy", "setting": "[7]; in vivo", "result": "five"}, {"measurement": "median time to progression", "setting": "[7]; no prior chemotherapy for metastatic disease", "result": 174, "unit": "days"}, {"measurement": "median time to progression", "setting": "[7]; one prior regimen", "result": 140, "unit": "days"}, {"measurement": "median time to progression", "setting": "[7]; two prior regimens", "result": 85, "unit": "days"}]}
{"molecule": "CC[C@@H]1C(=O)N(C)c2cnc(Nc3ccc(C(=O)N[C@H]4CC[C@H](N5CCN(CC6CC6)CC5)CC4)cc3OC)nc2N1C(C)C", "note": "[volasertib]", "values": [{"measurement": "OS compared with LDAC alone", "setting": "patients with AML [8]", "result": "significant increase in OS"}, {"measurement": "benefit of the combination", "setting": "patients with AML [9]", "result": "no benefit"}, {"measurement": "risk of severe infections", "setting": "patients with AML [9]", "result": "increased risk of severe infections"}]}
{"molecule": "Pembrolizumab: a monoclonal antibody directed against the PD-1 receptor", "values": [{"measurement": "reduction of the risk of death", "setting": "[10]", "result": 27, "unit": "%"}]}
